Reference: patent US20260232767A1, “INTERLEUKIN-23 RECEPTOR ANTAGONIST PEPTIDES FOR USE IN THE TREATMENT OF PSORIASIS” (Janssen Pharmaceutica NV, priority 2023, published 2026)

System: subjects with moderate-to-severe plaque psoriasis
Assay: Safety, adverse events, Example 2 through Week 56
Format: in vivo, human
Conditions: 50 mg QD
From the text: The LTE safety analysis was based on randomized participants in Example who entered the present long-term extension study and received at least one dose of study intervention (including a partial dose) during the study period.

Structure (SMILES): CC(=O)NCCCC[C@@H]1NC(=O)[C@H](Cc2c[nH]c3c(C)cccc23)NC(=O)[C@H]([C@@H](C)O)NC(=O)[C@H](CC(N)=O)NC(=O)[C@@H](NC(C)=O)C(C)(C)SSC(C)(C)[C@@H](C(=O)N[C@@H](Cc2ccc(OCCN)cc2)C(=O)N[C@@H](Cc2ccc3ccccc3c2)C(=O)NC2(C(=O)N[C@@H](CCC(=O)O)C(=O)N[C@@H](CC(N)=O)C(=O)N[C@@H](Cc3cccnc3)C(=O)N(C)CC(N)=O)CCOCC2)NC1=O [IL-23 receptor antagonist peptide, Ac-[Pen]*-N-T-[W(7-Me)]-[Lys(Ac)]-[Pen]*-Phe[4-(2-aminoethoxy)]-[2-Nal]-[THP]-E-N-[3-Pal]-Sarc-NH2 (*[Pen]-[Pen]* formdisulfidebond)]
- Subjects with AE leading to discontinuation: Insomnia (Week 16-56): 0
- Subjects with AE leading to discontinuation: Investigations (Week 16-56): 0
- Subjects with AE leading to discontinuation: Nervous system disorders (Week 16-56): 0
- Subjects with AE leading to discontinuation: Proctalgia (Week 16-56): 0
- Subjects with AE leading to discontinuation: Psoriasis (Week 16-56): 0
- Subjects with AE leading to discontinuation: Psychiatric disorders (Week 16-56): 0
- Subjects with AE leading to discontinuation: Skin and subcutaneous tissue disorders (Week 16-56): 0
- Subjects with AE leading to discontinuation: Vertigo (Week 16-56): 0
- Subjects with AE leading to discontinuation: Vomiting (Week 16-56): 0
- Subjects with COVID-19 associated AE of interest: SARS-CoV-2 test positive (Week 16-56): 0
- Subjects with treatment-emergent AE: Headache (Week 16-56): 0
- Subjects with treatment-emergent AE: Meniscus injury (Week 16-56): 0
- Subjects with treatment-emergent AE: Nervous system disorders (Week 16-56): 0
- Subjects with treatment-emergent AE: Vomiting (Week 16-56): 0
- Subjects with treatment-emergent serious AE: Cerebrovascular accident (Week 16-56): 0
- Subjects with treatment-emergent serious AE: Diverticulitis (Week 16-56): 0
- Subjects with treatment-emergent serious AE: Infections and infestations (Week 16-56): 0
- Subjects with treatment-emergent serious AE: Injury, poisoning and procedural complications (Week 16-56): 0
- Subjects with treatment-emergent serious AE: Intervertebral disc protrusion (Week 16-56): 0
- Subjects with treatment-emergent serious AE: Ligament injury (Week 16-56): 0
- Subjects with treatment-emergent serious AE: Neoplasms benign, malignant and unspecified (incl cysts and polyps) (Week 16-56): 0
- Subjects with treatment-emergent serious AE: Nervous system disorders (Week 16-56): 0
- Subjects with treatment-emergent serious AE: Respiratory, thoracic and mediastinal disorders (Week 16-56): 0
- Subjects with treatment-emergent serious AE: Tonsillar hypertrophy (Week 16-56): 0
- Subjects with treatment-emergent serious AE: Uterine leiomyoma (Week 16-56): 0
- Subjects with treatment-emergent serious AE: Ventricular dysfunction (Week 16-56): 0
- Acrochordon: number of subjects (through Week 56): 0
- Actinic keratosis: % of subjects (through Week 56): (2.3%)
- Actinic keratosis: number of subjects (through Week 56): 1
- Alopecia: number of subjects (through Week 56): 0
- Asthenia: number of subjects (through Week 56): 0
- Asthma: number of subjects (through Week 56): 0
- Atrioventricular block first degree: number of subjects (through Week 56): 0
- Basal cell carcinoma: % of subjects (through Week 56): (2.3%)
- Basal cell carcinoma: number of subjects (through Week 56): 1
- Blood and lymphatic system disorders: % of subjects (through Week 56): (7.0%)
- Blood and lymphatic system disorders: number of subjects (through Week 56): 3
- Bronchitis chronic: number of subjects (through Week 56): 0
- Bundle branch block right: number of subjects (through Week 56): 0
- Cardiac disorders: % of subjects (through Week 56): (2.3%)
- Cardiac disorders: number of subjects (through Week 56): 1
- Chills: number of subjects (through Week 56): 0
- Cholelithiasis: number of subjects (through Week 56): 0
- Chronic obstructive pulmonary disease: number of subjects (through Week 56): 0
- Coronary artery disease: % of subjects (through Week 56): (2.3%)
- Coronary artery disease: number of subjects (through Week 56): 1
- Cough: % of subjects (through Week 56): (4.7%)
- Cough: number of subjects (through Week 56): 2
- Decreased appetite: number of subjects (through Week 56): 0
- Depression: number of subjects (through Week 56): 0
- Dermal cyst: number of subjects (through Week 56): 0
- Dermatitis acneiform: number of subjects (through Week 56): 0
- Dermatitis contact: % of subjects (through Week 56): (2.3%)
- Dermatitis contact: number of subjects (through Week 56): 1
- Diabetes mellitus: number of subjects (through Week 56): 0
- Diffuse alopecia: number of subjects (through Week 56): 0
- Dysuria: number of subjects (through Week 56): 0
- Ear and labyrinth disorders: number of subjects (through Week 56): 0
- Endocrine disorders: number of subjects (through Week 56): 0
- Eye disorders: number of subjects (through Week 56): 0
- Eyelid skin dryness: number of subjects (through Week 56): 0
- Fatigue: % of subjects (through Week 56): (2.3%)
- Fatigue: number of subjects (through Week 56): 1
- General disorders and administration site conditions: % of subjects (through Week 56): (7.0%)
- General disorders and administration site conditions: number of subjects (through Week 56): 3
- Goiter: number of subjects (through Week 56): 0
- Haemochromatosis: number of subjects (through Week 56): 0
- Hand dermatitis: number of subjects (through Week 56): 0
- Hematuria: % of subjects (through Week 56): (2.3%)
- Hematuria: number of subjects (through Week 56): 1
- Hepatobiliary disorders: number of subjects (through Week 56): 0
- Hypercholesterolemia: number of subjects (through Week 56): 0
- Hyperglycemia: % of subjects (through Week 56): (2.3%)
- Hyperglycemia: number of subjects (through Week 56): 1
- Hyperlipidemia: number of subjects (through Week 56): 0
- Hypertension: % of subjects (through Week 56): (2.3%)
- Hypertension: number of subjects (through Week 56): 1
- Hypertransaminasemia: number of subjects (through Week 56): 0
- Hypertriglyceridemia: number of subjects (through Week 56): 0
- Hypoacusis: number of subjects (through Week 56): 0
- Immune system disorders: % of subjects (through Week 56): (2.3%)
- Immune system disorders: number of subjects (through Week 56): 1
- Influenza like illness: number of subjects (through Week 56): 0
- Insomnia: number of subjects (through Week 56): 0
- Intertrigo: number of subjects (through Week 56): 0
- Ketonuria: number of subjects (through Week 56): 0
- Leukocyturia: number of subjects (through Week 56): 0
- Leukopenia: % of subjects (through Week 56): (2.3%)
- Leukopenia: number of subjects (through Week 56): 1
- Libido decreased: number of subjects (through Week 56): 0
- Liver disorder: number of subjects (through Week 56): 0
- Lymphopenia: % of subjects (through Week 56): (4.7%)
- Lymphopenia: number of subjects (through Week 56): 2
- Menopause: % of subjects (through Week 56): (2.3%)
- Menopause: number of subjects (through Week 56): 1
- Metabolism and nutrition disorders: % of subjects (through Week 56): (2.3%)
- Metabolism and nutrition disorders: number of subjects (through Week 56): 1
- Neoplasms benign, malignant and unspecified (incl cysts and polyps): % of subjects (through Week 56): (4.7%)
- Neoplasms benign, malignant and unspecified (incl cysts and polyps): number of subjects (through Week 56): 2
- Nephrolithiasis: number of subjects (through Week 56): 0
- Neutropenia: % of subjects (through Week 56): (4.7%)
- Neutropenia: number of subjects (through Week 56): 2
- Night sweats: % of subjects (through Week 56): (2.3%)
- Night sweats: number of subjects (through Week 56): 1
- Non-cardiac chest pain: % of subjects (through Week 56): (2.3%)
- Non-cardiac chest pain: number of subjects (through Week 56): 1
- Ocular cyst: number of subjects (through Week 56): 0
- Oedema peripheral: % of subjects (through Week 56): (2.3%)
- Oedema peripheral: number of subjects (through Week 56): 1
- Oropharyngeal pain: number of subjects (through Week 56): 0
- Procedural pain: number of subjects (through Week 56): 0
- Productive cough: number of subjects (through Week 56): 0
- Proteinuria: number of subjects (through Week 56): 0
- Pruritus: % of subjects (through Week 56): (2.3%)
- Pruritus: number of subjects (through Week 56): 1
- Psoriasis: number of subjects (through Week 56): 0
- Psychiatric disorders: number of subjects (through Week 56): 0
- Pyrexia: number of subjects (through Week 56): 0
- Rash pruritic: number of subjects (through Week 56): 0
- Renal and urinary disorders: % of subjects (through Week 56): (2.3%)
- Renal and urinary disorders: number of subjects (through Week 56): 1
